Data from patent US10111901B2, “Beta-glucan in combination with anti-cancer agents affecting the tumor microenvironment” (Biothera, Inc., priority 2014, dated 2018).

Experiments:
Type in all cases: cell-based, human
M2 macrophages = assay: Mac-CD4 T co-culture surface marker modulation on macrophages
Method: For evaluation of Mac-CD4 T cell surface marker modulation, M2 macrophages were co-cultured with T cells as described above and cells were harvested on day 8, day 9 and day 10 to perform surface receptor staining on both M2 macrophages and T cells.
Changes in surface marker expression on both macrophages and CD3 & CD28-stimulated T cells were also measured. Vehicle- and β-glucan-treated M2 macrophages and CD T cells from the co-cultures were evaluated by flow cytometry for the modulation of co-stimulatory or co-inhibitory molecules. FIG. 8C and Table 9 are representative results from 2 different experiments.

mMoDC = assay: Flow cytometry of maturation markers on mature monocyte-derived dendritic cells (mMoDC)
Method: Given that macrophages and dendritic cells are the two key antigen presenting cell types that bridge innate and adaptive immunity, the phenotypic and functional effect of soluble β-glucan was also evaluated on human monocyte-derived dendritic cells (MoDC). Monocytes enriched from soluble β-glucan- or vehicle-treated whole blood were cultured in media containing the appropriate cytokines, GM-CSF plus IL-4, for differentiation of dendritic cells. Steps included in the method for in vitro culture and characterization of human MoDCs are outlined below.
The phenotypic and functional evaluation of mMoDC prepared from soluble β-glucan-treated whole blood of a high binder and low binder was carried out. mMoDCs from a high binder and a low binder were prepared as described above. mMoDCs were evaluated for CD80, CD83, CD86 and HLA-DR expression by flow cytometry, and median MFI was calculated for isotype control staining and surface antigen staining and the results are shown in Table 7.
MoDC derived from β-glucan-treated monocytes are more mature even in immunosuppressive conditions. MoDCs were prepared as described above. TCM was added to account for 70% of the volume of the culture on day 0 and was present throughout the culturing period. mMoDCs cultured in the presence of TCM were subsequently evaluated for phenotypic changes.

CD4 and CD8 T cells = assay: T cell proliferation and activation of PBMCs cultured in plasma from treated whole blood
Method: To obtain plasma, whole blood was treated for 6 hours with 25 μg/mL β-glucan or vehicle, spun down and the plasma removed. 50,000 autologous CFSE-labeled PBMCs were cultured in the treated plasma for 3 days in the presence of 50,000 T cell activating CD3/28 beads (DYNABEADS Human T-Activator CD3/CD28 for T Cell Expansion and Activation). At the end of the culture, PBMCs were stained with CD4 and CD8 and T cell proliferation was measured by CFSE dilution.
Next, to show the effect of soluble β-glucan on CD4 and CD8 cell activation, the T cell proliferation assay described above was again carried out. At day 3, however, the cells were stained for markers of activation including Granzyme B production and CD25 upregulation.
To determine whether the enhancement of T cell proliferation by β-glucan is direct or indirect, T cell proliferation assays were carried out as described above except the plasma from untreated (vehicle) whole blood was then either treated with β-glucan or vehicle prior to adding to autologous PBMCs. CFSE dilution was quantitated by Division Index using FLOWJO software and plotted as fold change over vehicle control. The results shown in FIG. 5C indicate that β-glucan's enhanced effect is due to indirect mechanisms.

monocytes = assay: β-glucan binding to monocytes in whole blood, serum cross-over
Method: To test this, M2 macrophages were prepared as described above with a few modifications. The whole blood of a low binder was spun down to remove the plasma and then the cells were reconstituted with serum obtained from a high binder. The reconstituted blood was treated with vehicle or β-glucan (25 μg/mL) for 2 hours at 37° C. The monocytes were evaluated for binding by using anti-β-glucan specific monoclonal antibody and subsequent flow cytometry.

CD33+CD11b+ cells (MDSC) = assay: Suppression of T cell proliferation by cord blood-derived MDSC; conditions: 2:1 ratio of CD8 T cells to MDSCs, vs citrate buffer
Method: In another study, human cord blood was enriched for CD34^+ cells and cultured for 9 days to produce CD33^+CD11b^+ cells (MDSC). The MDSC were then treated with soluble β-glucan or citrate buffer (control) and evaluated for their ability to suppress T cell proliferation. The T cell proliferation assay was carried out at a 2:1 ratio of CD8 T cells to treated or untreated MDSCs.

[1] = relative to vehicle-treated M2 macrophages, co-culture
[2] = MoDC cultured in TCM, immunosuppressive conditions

β(1,6)-[poly-(1,3)-D-glucopyranosyl]-poly-β(1,3)-D-glucopyranose [β-glucan]
Change in MFI on Macrophages: 4-1BBL (M2 macrophages; [1]): No change | Change in MFI on Macrophages: CD40 (M2 macrophages; [1]): No change | Change in MFI on Macrophages: CD80 (M2 macrophages; [1]): No change | Change in MFI on Macrophages: CD172 (M2 macrophages; [1]): No change | Change in MFI on Macrophages: CD209 (M2 macrophages; [1]): No change | Change in MFI on Macrophages: OX40 (M2 macrophages; [1]): No change | Change in MFI on Macrophages: CD86 (M2 macrophages; relative to vehicle-treated M2 macrophages, co-culture (day 8)): Increase | Change in MFI on Macrophages: PD-L1 (CD274) (M2 macrophages; relative to vehicle-treated M2 macrophages, co-culture (day 9)): Increase | Change in MFI on Macrophages: HLA-DR (M2 macrophages; β-glucan-treated M2 macrophages relative to vehicle-treated, co-culture with CD3 & CD28-stimulated T cells): No change | CD80 median MFI (mMoDC; MoDC cultured in TCM (70% of volume, from day 0), immunosuppressive conditions): 465 | CD83 median MFI (mMoDC; [2]): 607 | CD86 median MFI (mMoDC; [2]): 15797 | HLA-DR median MFI (mMoDC; [2]): 361 | CD80 median MFI (mMoDC; mMoDCs, high binder): 744 | CD83 median MFI (mMoDC; mMoDCs, high binder): 466 | CD86 median MFI (mMoDC; mMoDCs, high binder): 10759 | HLA-DR median MFI (mMoDC; mMoDCs, high binder): 7049 | CD80 median MFI (mMoDC; mMoDCs, low binder): 1197 | CD83 median MFI (mMoDC; mMoDCs, low binder): 2924 | CD86 median MFI (mMoDC; mMoDCs, low binder): 77749 | HLA-DR median MFI (mMoDC; mMoDCs, low binder): 2960 | CD4 and CD8 proliferation (CFSE dilution) (CD4 and CD8 T cells; plasma from whole blood treated 6 hours with 25 μg/mL β-glucan, vs vehicle): significant enhancement | CD4 and CD8 cell activation (Granzyme B production, CD25 upregulation) (CD4 and CD8 T cells; β-glucan-treated plasma, day 3): enhances CD4 and CD8 cell activation | binding of β-glucan to monocytes (monocytes; low binder's whole blood with high binder's serum containing higher levels of ABA): significantly higher binding | binding of β-glucan to monocytes (monocytes; whole blood of a low binder): did not bind | suppression of T cell proliferation by MDSC (CD33+CD11b+ cells (MDSC)): less suppressive
